Assay results: PMC8435859 (Frontiers in Cellular and Infection Microbiology, 2021)
Read-outs that look alike come from different tables or passages of the source.

Key:
[1] = system: prolyl oligopeptidase (POP); set-up: method as in ref Zhou XQ et al., Flavonoids from Scutellaria baicalensis and their bioactivities; details: concentration of 100 microM; ref Zhou XQ et al., Flavonoids from Scutellaria baicalensis and their bioactivities; cited from earlier work
[2] = system: human adenovirus type 3 (HAdV-3); set-up: method as in Li M, et al. Neurosci Lett. 2016; details: HAdV-3 in A549 cells; vendor library annotation; ref Li M, et al. Neurosci Lett. 2016; cited from earlier work
A549 cells = system: A549 cells; set-up: method as in Li M, et al. Neurosci Lett. 2016; details: vendor library annotation, ref Li M, et al. Neurosci Lett. 2016, read-out: LC50 (the source's name); cited from earlier work
aldose reductase = details: aldose reductase; vendor library annotation; ref Aida K, et al. Planta Med, 1990; read-out: IC50; cited from earlier work
[3] = cited from earlier work; for Solubility in water (in words): library annotation
[4] = system: human tumor cell line panel; set-up: method as in Huang Y et al., Journal of Natural Products, 1998; details: library annotation, ref Huang Y et al., Journal of Natural Products, 1998; cited from earlier work
CYP3A = system: CYP3A; set-up: method as in Wang CP, et al. J Physiol Biochem. 2014 Sep;70(3):735-47; details: ref Wang CP, et al. J Physiol Biochem. 2014 Sep;70(3):735-47; cited from earlier work
GX_P2V [5] = experiment: microbe, parasite or virus in culture; format: cell-based, Pangolin coronavirus
SARS-CoV-2 isolate WIV04 = experiment: Anti-SARS-CoV-2 activity in vitro, viral yield in Vero E6 supernatant by qRT-PCR; format: cell-based, Severe acute respiratory syndrome coronavirus 2; details: for SI: CC50/EC50, SARS-CoV-2 WIV04 in Vero E6; for EC50: SARS-CoV-2 WIV04 MOI 0.01, Vero E6, 24 h.p.i., supernatant qRT-PCR
Text: To verify the drugs screened through the GX_P2V drug screening alternative model, we repeatedly tested the antiviral activity of the above drugs on SARS-CoV-2. In brief, Vero E6 cells were pre-seeded in 48-well plates at a density of 5×10^4 cells/well and continued to be cultured overnight. Two hours before infection, the culture supernatant of Vero E6 cells was discarded and replaced with a DMEM medium containing different concentration gradient drugs. Vero E6 cells were continued to be cultured for 2 hours, which was conducive to the early entry of the drugs into the cells. Vero E6 cells were infected with WIV04 at a MOI=0.01 for 1 h. After discarding the supernatant, the cells were washed twice with DMEM, and the medium was changed to a DMEM medium (10%FBS) containing the corresponding concentration of the drug. After 24 h.p.i, the cell supernatant was collected. According to the manufacturer’s instructions, the viral RNA was extract using Magnetic Bead Virus RNA Extraction Kits (Shanghai Fine Gene Biotech, FG438). The viral yield in the cell supernatant was then quantified by qRT-PCR using HiSxript II One step qRT-PCR SYBRGreen Kit (Vazyme, Nanjing, China).

GX_P2V NP protein = format: cell-based, Pangolin coronavirus
[6] = Cytotoxicity, CellTiter-Blue Cell Viability Assay; details: African green monkey
SARS-CoV-2 = system: SARS-CoV-2; set-up: method as in Cao et al., 2020; details: SARS-CoV-2 in vitro; ref Cao et al., 2020; cited from earlier work
GX_P2V [7] = format: cell-based, Pangolin coronavirus
in vitro = details: African green monkey
Vero E6 cells = experiment: Cytotoxicity, CellTiter-Blue Cell Viability Assay; details: Vero E6 cells, CellTiter-Blue
yeast-α-glucosidase = target: yeast-α-glucosidase; set-up: method as in ref Saw C L L et al., Biopharmaceutics & Drug Disposition, 2014, 34(6):303-311; details: ref Saw C L L et al., Biopharmaceutics & Drug Disposition, 2014, 34(6):303-311, cited from earlier work
[8] = Pangolin coronavirus, Vero C1008, 72 h
[9] = Severe acute respiratory syndrome coronavirus 2, Vero C1008, 24 h

COc1c(O)cc2oc(-c3ccc(O)cc3)cc(=O)c2c1O [4', 5,7-trihydroxy-6-methoxyflavone]
inhibition of total prolyl oligopeptidase (POP) activity [1]: 43%

CC(C)(O)[C@@H]1CC[C@](C)([C@H]2[C@@H](O)C[C@@]3(C)[C@@H]4C[C@H](O[C@@H]5O[C@H](CO)[C@@H](O)[C@H](O)[C@H]5O)[C@H]5C(C)(C)[C@@H](O[C@@H]6OC[C@@H](O)[C@H](O)[C@H]6O)CC[C@@]56C[C@@]46CC[C@]23C)O1 [Astragaloside IV]
IC50 [2]: 23 µM
CC50 (A549 cells): 865 µM

O=C(/C=C/c1ccc(O)cc1)c1ccc(O)cc1O [Isoliquiritigenin]
IC50 (aldose reductase): 0.32 µM

COc1ccc(-c2cc(=O)c3c(O)cc(O[C@@H]4O[C@H](CO)[C@@H](O)[C@H](O)[C@H]4O[C@@H]4O[C@@H](C)[C@H](O)[C@@H](O)[C@H]4O)cc3o2)cc1O [Neodiosmin]
aqueous solubility ([3]; ref Mencherini T, et al. Journal of Agricultural and Food Chemistry, 2013, 61(8):1686-1693): 1. Neodiosmin has poor aqueous solubility but exerts a good debittering effect and is a strong antioxidant with potential applications in foods, beverages, and pharmaceutical preparations.

COc1ccc(-c2cc(=O)c3c(OC)c(OC)c(OC)c(OC)c3o2)cc1OC [Nobiletin]
solubility in water ([3]; vendor library annotation, ref Murakami A, et al. Cancer Res, 2000): Nobiletin is a natural polymethoxylated flavone isolated from citrus peels with anti-inflammatory and anti-tumor activities. Nobiletin is practically insoluble (in water) and an extremely weak acidic compound (based on its pKa).

COc1c(O[C@@H]2O[C@H](C(=O)O)[C@@H](O)[C@H](O)[C@H]2O)cc2oc(-c3ccccc3)cc(=O)c2c1O [Oroxylin A 7-O-beta-D-glucuronide]
inhibition of total prolyl oligopeptidase (POP) activity [1]: 34%

CC(C)C1=CC(=O)[C@](C)([C@H]2[C@H](O)C[C@@]3(C)[C@@H]4CC=C5[C@@H](CC[C@@H](O[C@@H]6OC[C@@H](O)[C@H](O)[C@H]6O[C@@H]6O[C@@H](C)[C@H](O)[C@@H](O)[C@H]6O)C5(C)C)[C@]4(C)C(=O)C[C@]23C)O1 [Picfeltarraenin IA]
cytotoxic activity in vitro [4]: 1. Picfeltarraenin IB and Picfeltarraenin IA displayes no cytotoxic activity in vitro human tumor cell line panel.

CC(C)C1=CC(=O)[C@@](C)([C@H]2[C@H](O)C[C@@]3(C)[C@@H]4CC=C5[C@@H](CC[C@@H](O[C@@H]6O[C@H](CO)[C@@H](O)[C@H](O)[C@H]6O[C@@H]6O[C@@H](C)[C@H](O)[C@@H](O)[C@H]6O)C5(C)C)[C@]4(C)C(=O)C[C@]23C)O1 [Picfeltarraenin IB]
cytotoxic activity in vitro [4]: 1. Picfeltarraenin IB and Picfeltarraenin IA displayes no cytotoxic activity in vitro human tumor cell line panel.

COc1cc2c(c(OC)c1OC)-c1c(cc(OC)c(OC)c1OC)C[C@H](C)[C@H](C)C2 [Schizandrin A]
IC50 (CYP3A): 6.6 µM
Ki (CYP3A): 5.83 µM

C=C1CC[C@@H]2[C@](C)(CO)[C@H](O)CC[C@@]2(C)[C@@H]1C/C=C1/C(=O)OC[C@H]1O [andrographolide]
SI (GX_P2V [5]; CC50/EC50, GX_P2V in Vero E6): 14.11
EC50 (GX_P2V [5]; [8]): 6.79 µM
SI (SARS-CoV-2 isolate WIV04): 8.61
EC50 (SARS-CoV-2 isolate WIV04; [9]): 11.1 µM
expression of viral NP protein (GX_P2V NP protein): achieved the same inhibitory effect
CC50 [6]: 95.8 µM
CC50 ([6]; Vero E6 cells): 95.7 µM

C=C1C(=O)O[C@@]23[C@H]1CC[C@@H](C)[C@@H]2CC[C@@]1(C)O[C@@H]31 [arteannuin B]
EC50 (GX_P2V [5]; [8]): 8.84 µM
SI (SARS-CoV-2 isolate WIV04): 9.72
EC50 (SARS-CoV-2 isolate WIV04; [9]): 12 µM
expression of viral NP protein (GX_P2V NP protein): achieved the same inhibitory effect
EC50 (SARS-CoV-2): 10.3 ± 1.12 µM
CC50 [6]: 111 µM
CC50 ([6]; Vero E6 cells): 117 µM

CO[C@H]1O[C@@H]2O[C@@]3(C)CC[C@H]4[C@H](C)CC[C@@H]([C@H]1C)[C@@]24OO3 [artemether, reference compound]
EC50 (GX_P2V [5]; [8]): 3.7 µM
stage of action in time-of-addition assay (GX_P2V [7]): functioned on both entry and post-entry stages
expression of viral NP protein (GX_P2V NP protein): almost completely inhibited
CC50 ([6]; Vero E6 cells): > 200 µM

C[C@H]1[C@H](OC(=O)CCC(=O)O)O[C@@H]2O[C@@]3(C)CC[C@H]4[C@H](C)CC[C@@H]1[C@@]24OO3 [artesunate, reference compound]
EC50 (GX_P2V [5]; [8]): 10.1 µM
SI (SARS-CoV-2 isolate WIV04): 7.84
EC50 (SARS-CoV-2 isolate WIV04; [9]): 16.2 µM
expression of viral NP protein (GX_P2V NP protein): most viral NP proteins can be inhibited
EC50 (SARS-CoV-2): 13 ± 5.3 µM
Solubility in water (in words) ([3]; ref Xu N, et al. Int J Med Sci. 2015, 12(6):524-529.): Artesunate is part of the artemisinin group of drugs that treat malaria. It is a semi-synthetic derivative of artemisinin that is water-soluble and may therefore be given by injection. It is on the World Health Organization's List of Essential Medicines.
CC50 [6]: 127 µM
CC50 ([6]; Vero E6 cells): 127 µM

CCN(CC)CCCC(C)Nc1ccnc2cc(Cl)ccc12 (stereo not shown) [chloroquine]
SI (GX_P2V [5]): > 3.92
EC50 (GX_P2V [5]; [8]): 12.8 µM
CC50 (in vitro): > 50 µM

COc1cc(O)ccc1/C=C/C(=O)c1ccc(O)cc1 [echinatin]
EC50 (GX_P2V [5]; [8]): 20.9 µM
SI (SARS-CoV-2 isolate WIV04): 15.27
EC50 (SARS-CoV-2 isolate WIV04; [9]): 7.86 µM
expression of viral NP protein (GX_P2V NP protein): most viral NP proteins can be inhibited
CC50 [6]: 158 µM
CC50 ([6]; Vero E6 cells): 120 µM

CCN(CCO)CCCC(C)Nc1ccnc2cc(Cl)ccc12 (stereo not shown) [hydroxychloroquine]
SI (GX_P2V [5]; CC50/EC50, GX_P2V in Vero E6): 9.157
EC50 (GX_P2V [5]; [8]): 6.59 µM
CC50 [6]: 60.3 µM

COc1c(/C=C/C(=O)c2ccc(O)cc2)ccc(O)c1O [licochalcone B, Licochalcone B]
SI (GX_P2V [5]): 4.28
EC50 (GX_P2V [5]; read-out: EC50): 24.9 µM
SI (SARS-CoV-2 isolate WIV04): 6.86
EC50 (SARS-CoV-2 isolate WIV04): 15.5 µM
expression of viral NP protein (GX_P2V NP protein): most viral NP proteins can be inhibited
CC50 (Vero E6 cells): 106 µM

O=C(/C=C/c1ccc(O)c2c1[C@@H](C(=O)O[C@H](Cc1ccc(O)c(O)c1)C(=O)O)[C@H](c1ccc(O)c(O)c1)O2)O[C@H](Cc1ccc(O)c(O)c1)C(=O)O [lithospermic acid B]
Solubility in water (in words) ([3]; ref Wang J, et al. Evidence-Based Complementary and Alternative Medicine, 2013, 2013:1-16.): lithospermic acid B is a water-soluble antioxidant from Salvia extract. It plays significant role of antioxidant effect; antiplatelet aggregation, anticoagulant, and antithrombotic effect

Cc1cccc(C)c1OCC(=O)N[C@@H](Cc1ccccc1)[C@@H](O)C[C@H](Cc1ccccc1)NC(=O)[C@H](C(C)C)N1CCCNC1=O [lopinavir]
SI (GX_P2V [5]; CC50/EC50, GX_P2V in Vero E6): > 2.13
EC50 (GX_P2V [5]; [8]): 11.7 µM
CC50 [6]: > 25 µM

CCC/C=C1/OC(=O)c2ccccc21 [n-Butylidenephthalide]
Ki (yeast-α-glucosidase; noncompetitive fashion, read-out: K(i), yeast-α-glucosidase): 4860 µM
IC50 (yeast-α-glucosidase; noncompetitive, read-out: IC(5), inhibition of yeast-α-glucosidase activity): 2350 µM

Cc1c(O)cccc1C(=O)N[C@@H](CSc1ccccc1)[C@H](O)CN1C[C@H]2CCCC[C@H]2C[C@H]1C(=O)NC(C)(C)C [nelfinavir]
SI (GX_P2V [5]; CC50/EC50, GX_P2V in Vero E6): 5.86
EC50 (GX_P2V [5]; [8]): 6.71 µM
CC50 [6]: 39.3 µM

CCC(CC)COC(=O)[C@H](C)N[P@](=O)(OC[C@H]1O[C@@](C#N)(c2ccc3c(N)ncnn23)[C@H](O)[C@@H]1O)Oc1ccccc1 [remdesivir]
SI (GX_P2V [5]; CC50/EC50, GX_P2V in Vero E6): > 33.78
EC50 (GX_P2V [5]; [8]): 0.74 µM
CC50 [6]: > 25 µM
